In patent US8946273B2, “S-Triazolyl alpha-mercapto acetanilides as inhibitors of HIV reverse transcriptase” (priority 2011, dated 2015):
pEC50, pIC50: −log10 of the molar value.

molecular target: T1, wild-type HIV reverse transcriptase (Human immunodeficiency virus type 1 group M subtype B, UniProt P04585); experiment: Activity on wild type reverse transcriptase (Table 1 IC50 WT); type: biochemical; details: not given
T1 construct: wild-type and four mutant HIV reverse transcriptases
Experimental: Using similar methods as described above, 2-[5-bromo-4-(4-cyclopropylnaphthalen-1-yl)-4H-[1,2,4]triazol-3-ylsulfanyl]-N-(2-methyl-4-sulfamoylphenyeacetamide and 2-[5-bromo-4-(4-ethylnaphthalen-1-yl)-4H-[1,2,4]triazol-3-ylsulfanyl]-N-(2-chloro-4-sulfamoylphenyl)-acetamide were synthesized, as were the N-4-carbamyl analog, 2-[5-bromo-4-(4-ethyl-naphthalen-1-yl)-4H-[1,2,4]triazol-3-ylsulfanyl]-N-(2-chloro-4-carbamoylphenyl)-acetamide and the N-4-carboxyl analog. Each of the compounds was tested against a panel of mutant HIV reverse transcriptases, including 20 of the 22 of the mutants that are found in about 2% or more of the patient samples that are resistant to the most widely used non-nucleoside HIV-RT inhibitor efavirenz ((4S)-6-chloro-4-(cyclopropylethynyl)-1,4-dihydro-4-(trifluoromethyl)-2H-3,1-benzoxazin-2-one). […] In most cases both criteria were met. […] […].
Compounds of the invention were tested against the wild-type and four mutant HIV reverse transcriptases. The results are listed in Table 1 as EC50 (nM) and IC50 (nM). In the Table, A represents <50 nM, B is between 50 and 100 nM, and C is >100 nM. ND is not determined.

SMILES | pIC50
CNS(=O)(=O)c1ccc(NC(=O)CSc2nnc(C(F)F)n2-c2ccc(C)c3c2CCCC3)c(Cl)c1 [compound 51] | > 7.30
Cc1cc(S(N)(=O)=O)ccc1NC(=O)CSc1nnc(CF)n1-c1c(C)cc(C)c2ccccc12 [compound 52] | > 7.30
CNS(=O)(=O)c1ccc(NC(=O)CSc2nnc(C(F)F)n2-c2ccc(C)c3ccccc23)c(Cl)c1 [compound 54] | > 7.30
CCc1ccc(-n2c(CF)nnc2SCC(=O)Nc2ccc(S(=O)(=O)NC)cc2Cl)c2ccccc12 [compound 55] | 7.00 to 7.30
CCOC(=O)C(C)NS(=O)(=O)c1ccc(NC(=O)CSc2nnc(C(F)F)n2-c2ccc(C)c3c2CCCC3)c(Cl)c1 (stereo not shown) [compound 56] | > 7.30
Cc1ccc(-n2c(SCC(=O)Nc3ccc(S(=O)(=O)NCCN4CCOCC4)cc3Cl)nnc2C(F)F)c2c1CCCC2 [compound 57] | > 7.30
Cc1ccc(-n2c(SCC(=O)Nc3ccc(S(=O)(=O)NCCC(=O)O)cc3Cl)nnc2C(F)F)c2c1CCCC2 [compound 58] | > 7.30
Cc1ccc(-n2c(SCC(=O)Nc3ccc(S(=O)(=O)NC(C)C(=O)O)cc3Cl)nnc2C(F)F)c2c1CCCC2 (stereo not shown) [compound 59] | > 7.30
Cc1ccc(-n2c(SCC(=O)Nc3ccc(S(=O)(=O)NC(C(=O)O)C(C)C)cc3Cl)nnc2C(F)F)c2c1CCCC2 (stereo not shown) [compound 60] | > 7.30
NS(=O)(=O)c1ccc(NC(=O)CSc2nnc(Br)n2-c2ccc(F)c3ccccc23)c(Cl)c1 [compound 61] | > 7.30

molecular target: mutant HIV reverse transcriptases (Human immunodeficiency virus type 1, UniProt P12497, Y775L, cells depend on it); experiment: not given; type: cell-based; details: not given

SMILES | pEC50
CNS(=O)(=O)c1ccc(NC(=O)CSc2nnc(C(F)F)n2-c2ccc(C)c3c2CCCC3)c(Cl)c1 [compound 51] | > 7.30
Cc1cc(S(N)(=O)=O)ccc1NC(=O)CSc1nnc(CF)n1-c1c(C)cc(C)c2ccccc12 [compound 52] | > 7.30
CNS(=O)(=O)c1ccc(NC(=O)CSc2nnc(C(F)F)n2-c2ccc(C)c3ccccc23)c(Cl)c1 [compound 54] | 7.00 to 7.30
CCc1ccc(-n2c(CF)nnc2SCC(=O)Nc2ccc(S(=O)(=O)NC)cc2Cl)c2ccccc12 [compound 55] | 7.00 to 7.30
CCOC(=O)C(C)NS(=O)(=O)c1ccc(NC(=O)CSc2nnc(C(F)F)n2-c2ccc(C)c3c2CCCC3)c(Cl)c1 (stereo not shown) [compound 56] | < 7.00
Cc1ccc(-n2c(SCC(=O)Nc3ccc(S(=O)(=O)NCCN4CCOCC4)cc3Cl)nnc2C(F)F)c2c1CCCC2 [compound 57] | 7.00 to 7.30
Cc1ccc(-n2c(SCC(=O)Nc3ccc(S(=O)(=O)NCCC(=O)O)cc3Cl)nnc2C(F)F)c2c1CCCC2 [compound 58] | < 7.00
Cc1ccc(-n2c(SCC(=O)Nc3ccc(S(=O)(=O)NC(C)C(=O)O)cc3Cl)nnc2C(F)F)c2c1CCCC2 (stereo not shown) [compound 59] | < 7.00
Cc1ccc(-n2c(SCC(=O)Nc3ccc(S(=O)(=O)NC(C(=O)O)C(C)C)cc3Cl)nnc2C(F)F)c2c1CCCC2 (stereo not shown) [compound 60] | < 7.00
NS(=O)(=O)c1ccc(NC(=O)CSc2nnc(Br)n2-c2ccc(F)c3ccccc23)c(Cl)c1 [compound 61] | > 7.30

molecular target: mutant HIV reverse transcriptases (Human immunodeficiency virus type 1, UniProt P12497, Y768C, cells depend on it); experiment: not given; type: cell-based; details: not given

SMILES | pEC50
CNS(=O)(=O)c1ccc(NC(=O)CSc2nnc(C(F)F)n2-c2ccc(C)c3c2CCCC3)c(Cl)c1 [compound 51] | > 7.30
Cc1cc(S(N)(=O)=O)ccc1NC(=O)CSc1nnc(CF)n1-c1c(C)cc(C)c2ccccc12 [compound 52] | > 7.30
CNS(=O)(=O)c1ccc(NC(=O)CSc2nnc(C(F)F)n2-c2ccc(C)c3ccccc23)c(Cl)c1 [compound 54] | > 7.30
CCc1ccc(-n2c(CF)nnc2SCC(=O)Nc2ccc(S(=O)(=O)NC)cc2Cl)c2ccccc12 [compound 55] | > 7.30
CCOC(=O)C(C)NS(=O)(=O)c1ccc(NC(=O)CSc2nnc(C(F)F)n2-c2ccc(C)c3c2CCCC3)c(Cl)c1 (stereo not shown) [compound 56] | > 7.30
Cc1ccc(-n2c(SCC(=O)Nc3ccc(S(=O)(=O)NCCN4CCOCC4)cc3Cl)nnc2C(F)F)c2c1CCCC2 [compound 57] | > 7.30
Cc1ccc(-n2c(SCC(=O)Nc3ccc(S(=O)(=O)NCCC(=O)O)cc3Cl)nnc2C(F)F)c2c1CCCC2 [compound 58] | < 7.00
Cc1ccc(-n2c(SCC(=O)Nc3ccc(S(=O)(=O)NC(C)C(=O)O)cc3Cl)nnc2C(F)F)c2c1CCCC2 (stereo not shown) [compound 59] | < 7.00
Cc1ccc(-n2c(SCC(=O)Nc3ccc(S(=O)(=O)NC(C(=O)O)C(C)C)cc3Cl)nnc2C(F)F)c2c1CCCC2 (stereo not shown) [compound 60] | < 7.00
NS(=O)(=O)c1ccc(NC(=O)CSc2nnc(Br)n2-c2ccc(F)c3ccccc23)c(Cl)c1 [compound 61] | > 7.30

tested on: wild type HIV-1; experiment: microbe, parasite or virus in culture; type: cell-based, human immunodeficiency virus type 1 (HIV-1); details: Human immunodeficiency virus 1, Hela-JC53, read-out: EC50 WT

SMILES | pEC50
CNS(=O)(=O)c1ccc(NC(=O)CSc2nnc(C(F)F)n2-c2ccc(C)c3c2CCCC3)c(Cl)c1 [compound 51] | > 7.30
Cc1cc(S(N)(=O)=O)ccc1NC(=O)CSc1nnc(CF)n1-c1c(C)cc(C)c2ccccc12 [compound 52] | > 7.30
CNS(=O)(=O)c1ccc(NC(=O)CSc2nnc(C(F)F)n2-c2ccc(C)c3ccccc23)c(Cl)c1 [compound 54] | > 7.30
CCc1ccc(-n2c(CF)nnc2SCC(=O)Nc2ccc(S(=O)(=O)NC)cc2Cl)c2ccccc12 [compound 55] | > 7.30
CCOC(=O)C(C)NS(=O)(=O)c1ccc(NC(=O)CSc2nnc(C(F)F)n2-c2ccc(C)c3c2CCCC3)c(Cl)c1 (stereo not shown) [compound 56] | > 7.30
Cc1ccc(-n2c(SCC(=O)Nc3ccc(S(=O)(=O)NCCN4CCOCC4)cc3Cl)nnc2C(F)F)c2c1CCCC2 [compound 57] | > 7.30
Cc1ccc(-n2c(SCC(=O)Nc3ccc(S(=O)(=O)NCCC(=O)O)cc3Cl)nnc2C(F)F)c2c1CCCC2 [compound 58] | 7.00 to 7.30
Cc1ccc(-n2c(SCC(=O)Nc3ccc(S(=O)(=O)NC(C)C(=O)O)cc3Cl)nnc2C(F)F)c2c1CCCC2 (stereo not shown) [compound 59] | < 7.00
Cc1ccc(-n2c(SCC(=O)Nc3ccc(S(=O)(=O)NC(C(=O)O)C(C)C)cc3Cl)nnc2C(F)F)c2c1CCCC2 (stereo not shown) [compound 60] | < 7.00
NS(=O)(=O)c1ccc(NC(=O)CSc2nnc(Br)n2-c2ccc(F)c3ccccc23)c(Cl)c1 [compound 61] | > 7.30
